Like-named read-outs stand apart in the source and are kept apart here.
Legend:
Phytophthora infestans = type: in vivo; details: for TLB (Fungicidal Activities, C.V.): Tomato Late Blight
Puccinia recondita = assay: Fungicidal activity against Wheat Leaf Rust (WLR) disease; type: in vivo; details: for WLR (Fungicidal Activities, C.V.): Wheat Leaf Rust
Botrytis cinerae = assay: Fungicidal activity against Cucumber Gray Mold Rot (CGM) disease; type: in vivo; details: for CGM (Fungicidal Activities, C.V.): Cucumber Gray Mold Rot, concentration 50 ppm; for Fungicidal Activities CGM (C.V.): 50 ppm
Erysiphae graminis = assay: Fungicidal activity against Barley Powdery Mildew (BPM) disease; type: in vivo; details: for BPM (Fungicidal Activities, C.V.): Barley Powdery Mildew
Rhizoctonia solani AG-1 = assay: Fungicidal activity against Rice Sheath Blight (RSB) disease; details: for RSB (Fungicidal Activities, C.V.): Rice Sheath Blight
[1] = test system: Pyricularia oryzae Carvara KA301; type: in vivo; details: for RCV (Fungicidal Activities, C.V.): Rice Blast

CON=C(C(=O)OC)c1ccccc1CON=Cc1cccc(OC(F)=Cc2ccccc2)c1 [Compound 24]
TLB (Fungicidal Activities, C.V.) (Phytophthora infestans; concentration 50 ppm): 33% | WLR (Fungicidal Activities, C.V.) (Puccinia recondita; concentration 2 ppm): 95% | WLR (Fungicidal Activities, C.V.) (Puccinia recondita; concentration 10 ppm): 97% | WLR (Fungicidal Activities, C.V.) (Puccinia recondita; concentration 50 ppm): 99% | CGM (Fungicidal Activities, C.V.) (Botrytis cinerae): 50% | BPM (Fungicidal Activities, C.V.) (Erysiphae graminis; concentration 2 ppm): 95% | BPM (Fungicidal Activities, C.V.) (Erysiphae graminis; concentration 10 ppm): 100% | BPM (Fungicidal Activities, C.V.) (Erysiphae graminis; concentration 50 ppm): 100% | RSB (Fungicidal Activities, C.V.) (Rhizoctonia solani AG-1; concentration 2 ppm): 44% | RSB (Fungicidal Activities, C.V.) (Rhizoctonia solani AG-1; concentration 10 ppm): 72% | RSB (Fungicidal Activities, C.V.) (Rhizoctonia solani AG-1; concentration 50 ppm): 95% | RCV (Fungicidal Activities, C.V.) ([1]; concentration 2 ppm): 28% | RCV (Fungicidal Activities, C.V.) ([1]; concentration 10 ppm): 88% | RCV (Fungicidal Activities, C.V.) ([1]; concentration 50 ppm): 97%

CON=C(C(=O)OC)c1ccccc1CON=Cc1cccc(OC(F)=Cc2ccc3c(c2)OCO3)c1 [Compound 29]
TLB (Fungicidal Activities, C.V.) (Phytophthora infestans; concentration 2 ppm): 78% | TLB (Fungicidal Activities, C.V.) (Phytophthora infestans; concentration 50 ppm): 84% | WLR (Fungicidal Activities, C.V.) (Puccinia recondita; concentration 2 ppm): 96% | WLR (Fungicidal Activities, C.V.) (Puccinia recondita; concentration 50 ppm): 88% | CGM (Fungicidal Activities, C.V.) (Botrytis cinerae): 0% | BPM (Fungicidal Activities, C.V.) (Erysiphae graminis; concentration 2 ppm): 41% | BPM (Fungicidal Activities, C.V.) (Erysiphae graminis; concentration 50 ppm): 80% | RSB (Fungicidal Activities, C.V.) (Rhizoctonia solani AG-1; concentration 2 ppm): 20% | RSB (Fungicidal Activities, C.V.) (Rhizoctonia solani AG-1; concentration 50 ppm): 35% | RCV (Fungicidal Activities, C.V.) ([1]; concentration 2 ppm): 93% | RCV (Fungicidal Activities, C.V.) ([1]; concentration 50 ppm): 100%

CCCCc1ccc(C=C(F)Oc2cccc(C(C)=NOCc3ccccc3C(=NOC)C(=O)OC)c2)cc1 [Compound 70]
TLB (Fungicidal Activities, C.V.) (Phytophthora infestans; concentration 2 ppm): 12% | TLB (Fungicidal Activities, C.V.) (Phytophthora infestans; concentration 50 ppm): 0% | WLR (Fungicidal Activities, C.V.) (Puccinia recondita; concentration 2 ppm): 93% | WLR (Fungicidal Activities, C.V.) (Puccinia recondita; concentration 50 ppm): 97% | CGM (Fungicidal Activities, C.V.) (Botrytis cinerae): 50% | BPM (Fungicidal Activities, C.V.) (Erysiphae graminis; concentration 2 ppm): 83% | BPM (Fungicidal Activities, C.V.) (Erysiphae graminis; concentration 50 ppm): 100% | RSB (Fungicidal Activities, C.V.) (Rhizoctonia solani AG-1; concentration 2 ppm): 20% | RSB (Fungicidal Activities, C.V.) (Rhizoctonia solani AG-1; concentration 50 ppm): 85% | RCV (Fungicidal Activities, C.V.) ([1]; concentration 2 ppm): 99% | RCV (Fungicidal Activities, C.V.) ([1]; concentration 50 ppm): 100%

COC=C(C(=O)OC)c1ccccc1CON=Cc1cccc(OC(F)=Cc2ccc(F)cc2)c1 [Compound 12]
TLB (Fungicidal Activities, C.V.) (Phytophthora infestans; concentration 50 ppm): 83% | WLR (Fungicidal Activities, C.V.) (Puccinia recondita; concentration 2 ppm): 100% | WLR (Fungicidal Activities, C.V.) (Puccinia recondita; concentration 10 ppm): 100% | WLR (Fungicidal Activities, C.V.) (Puccinia recondita; concentration 50 ppm): 100% | CGM (Fungicidal Activities, C.V.) (Botrytis cinerae): 52% | BPM (Fungicidal Activities, C.V.) (Erysiphae graminis; concentration 2 ppm): 98% | BPM (Fungicidal Activities, C.V.) (Erysiphae graminis; concentration 10 ppm): 100% | BPM (Fungicidal Activities, C.V.) (Erysiphae graminis; concentration 50 ppm): 100% | RSB (Fungicidal Activities, C.V.) (Rhizoctonia solani AG-1; concentration 50 ppm): 70% | RCV (Fungicidal Activities, C.V.) ([1]; concentration 2 ppm): 33% | RCV (Fungicidal Activities, C.V.) ([1]; concentration 10 ppm): 93% | RCV (Fungicidal Activities, C.V.) ([1]; concentration 50 ppm): 98%

CON=C(C(=O)OC)c1ccccc1CON=C(C)c1cccc(OC(F)=C(c2cccc(OC)c2)C(F)(F)F)c1 [Compound 180]
Fungicidal Activities TLB (C.V.) (Phytophthora infestans; 50 ppm): 56% | Fungicidal Activities WLR (C.V.) (Puccinia recondita; 2 ppm): 97% | Fungicidal Activities WLR (C.V.) (Puccinia recondita; 50 ppm): 100% | Fungicidal Activities CGM (C.V.) (Botrytis cinerae): 56% | Fungicidal Activities BPM (C.V.) (Erysiphae graminis; 2 ppm): 98% | Fungicidal Activities BPM (C.V.) (Erysiphae graminis; 50 ppm): 100% | Fungicidal Activities RSB (C.V.) (Rhizoctonia solani AG-1; 2 ppm): 25% | Fungicidal Activities RSB (C.V.) (Rhizoctonia solani AG-1; 50 ppm): 60% | Fungicidal Activities RCV (C.V.) ([1]; 2 ppm): 86% | Fungicidal Activities RCV (C.V.) ([1]; 50 ppm): 100%

COC=C(C(=O)OC)c1ccccc1CON=Cc1cccc(OC(F)=C(c2cccc(C)c2)C(F)(F)F)c1 [Compound 104]
TLB (Fungicidal Activities, C.V.) (Phytophthora infestans; concentration 50 ppm): 0% | WLR (Fungicidal Activities, C.V.) (Puccinia recondita; concentration 2 ppm): 66% | WLR (Fungicidal Activities, C.V.) (Puccinia recondita; concentration 10 ppm): 93% | WLR (Fungicidal Activities, C.V.) (Puccinia recondita; concentration 50 ppm): 97% | CGM (Fungicidal Activities, C.V.) (Botrytis cinerae): 0% | BPM (Fungicidal Activities, C.V.) (Erysiphae graminis; concentration 2 ppm): 80% | BPM (Fungicidal Activities, C.V.) (Erysiphae graminis; concentration 10 ppm): 99% | BPM (Fungicidal Activities, C.V.) (Erysiphae graminis; concentration 50 ppm): 100% | RSB (Fungicidal Activities, C.V.) (Rhizoctonia solani AG-1; concentration 50 ppm): 45% | RCV (Fungicidal Activities, C.V.) ([1]; concentration 2 ppm): 25% | RCV (Fungicidal Activities, C.V.) ([1]; concentration 10 ppm): 75% | RCV (Fungicidal Activities, C.V.) ([1]; concentration 50 ppm): 96%

CNC(=O)C(=NOC)c1ccccc1CON=C(C)c1cccc(OC(F)=C(c2cccc(Cl)c2)C(F)(F)F)c1 [Compound 201]
Fungicidal Activities TLB (C.V.) (Phytophthora infestans; 2 ppm): 25% | Fungicidal Activities TLB (C.V.) (Phytophthora infestans; 50 ppm): 50% | Fungicidal Activities WLR (C.V.) (Puccinia recondita; 2 ppm): 97% | Fungicidal Activities WLR (C.V.) (Puccinia recondita; 50 ppm): 100% | Fungicidal Activities CGM (C.V.) (Botrytis cinerae): 85% | Fungicidal Activities BPM (C.V.) (Erysiphae graminis; 2 ppm): 100% | Fungicidal Activities BPM (C.V.) (Erysiphae graminis; 50 ppm): 100% | Fungicidal Activities RSB (C.V.) (Rhizoctonia solani AG-1; 2 ppm): 20% | Fungicidal Activities RSB (C.V.) (Rhizoctonia solani AG-1; 50 ppm): 85% | Fungicidal Activities RCV (C.V.) ([1]; 2 ppm): 98% | Fungicidal Activities RCV (C.V.) ([1]; 50 ppm): 97%

CNC(=O)C(=COC)c1ccccc1CON=C(C)c1cccc(OC(F)=Cc2ccc(Cl)c(C)c2)c1 [Compound 61]
TLB (Fungicidal Activities, C.V.) (Phytophthora infestans; concentration 50 ppm): 0% | WLR (Fungicidal Activities, C.V.) (Puccinia recondita; concentration 50 ppm): 43% | CGM (Fungicidal Activities, C.V.) (Botrytis cinerae): 33% | BPM (Fungicidal Activities, C.V.) (Erysiphae graminis; concentration 50 ppm): 86% | RSB (Fungicidal Activities, C.V.) (Rhizoctonia solani AG-1; concentration 50 ppm): 23% | RCV (Fungicidal Activities, C.V.) ([1]; concentration 50 ppm): 91%

— patent publication US6552080B1, “Fungicidal compounds having a fluorovinyl-or fluoropropenyl-oxyphenyloxime moiety and process for the preparation thereof” (Korea Research Institute of Chemical Technology, priority 1999, dated 2003)
